Data published in US10183914B2 (BAYER CROPSCIENCE AKTIENGESELLSCHAFT, priority 2014, dated 2019).

Tests used:
[1] = logp (HCOOH), physicochemical characterization
Stellaria media = assay: Pre-emergence herbicidal effect; assay type: in vivo; settings: 3 weeks
Description: (§1) Seeds of monocotyledonous and dicotyledonous weed plants and crop plants are laid out in wood-fiber pots in sandy loam and covered with soil. The compounds of the invention, formulated in the form of wettable powders (WP) or as emulsion concentrates (EC), are then applied to the surface of the covering soil as aqueous suspension or emulsion at a water application rate equating to 600 to 800 L/ha with addition of 0.2% wetting agent.
(§2) After the treatment, the pots are placed in a greenhouse and kept under good growth conditions for the trial plants. The damage to the trial plants is scored visually after a trial duration of 3 weeks by comparison with untreated controls (herbicidal activity in percent (%): 100% efficacy=the plants have died, 0% efficacy=like control plants).

Viola tricolor = assay: Pre-emergence herbicidal effect; assay type: in vivo; settings: 3 weeks
Description: as §1, §2

Amaranthus retroflexus = assay: Pre-emergence herbicidal effect; assay type: in vivo; settings: 3 weeks
Description: as §1, §2

Veronica persica = assay: Pre-emergence herbicidal effect; assay type: in vivo; settings: 3 weeks
Description: as §1, §2

Echinochloa crus-galli = assay: Pre-emergence herbicidal effect; assay type: in vivo; settings: 3 weeks
Description: as §1, §2

Matricaria inodora = assay: Pre-emergence herbicidal effect; assay type: in vivo; settings: 3 weeks
Description: as §1, §2

Oryza sativa = assay: Pre-emergence herbicidal effect and crop plant compatibility; assay type: in vivo; settings: 3 weeks
Description: as §1, §2

Zea mays = assay: as above; assay type: in vivo; settings: 3 weeks
Description: as §1, §2

[2] = system: Triticum aestivum (spring); assay: as above; assay type: in vivo; settings: 3 weeks
Description: as §1, §2

Setaria viridis = assay: Pre-emergence herbicidal effect; assay type: in vivo; settings: 3 weeks
Description: as §1, §2

Polygonum convolvulus = assay: Pre-emergence herbicidal effect; assay type: in vivo; settings: 3 weeks
Description: as §1, §2

[3] = system: Triticum aestivum (spring); assay: Post-emergence herbicidal effect and crop plant compatibility; assay type: in vivo; settings: 320 g/ha, visual scoring after about 3 weeks
Experimental: Seeds of monocotyledonous and dicotyledonous weed and crop plants are laid out in sandy loam in wood-fiber pots, covered with soil and cultivated in a greenhouse under good growth conditions. 2 to 3 weeks after sowing, the test plants are treated at the one-leaf stage. The compounds of the invention, formulated in the form of wettable powders (WP) or as emulsion concentrates (EC), are then sprayed onto the green parts of the plants as aqueous suspension or emulsion at a water application rate equating to 600 to 800 L/ha with addition of 0.2% wetting agent. After the trial plants have been left to stand in a greenhouse under optimal growth conditions for about 3 weeks, the efficacy of the formulations is scored visually in comparison to untreated controls (herbicidal action in percent (%): 100% efficacy=the plants have died, 0% efficacy=like control plants).

SMILES	STEME herbicidal activity in percent (Stellaria media; 320 g/ha)	VIOTR herbicidal activity in percent (Viola tricolor; 320 g/ha)	AMARE herbicidal activity in percent (Amaranthus retroflexus; 80 g/ha)	AMARE herbicidal activity in percent (Amaranthus retroflexus; 320 g/ha)	VERPE herbicidal activity in percent (Veronica persica; 80 g/ha)	VERPE herbicidal activity in percent (Veronica persica; 320 g/ha)	MATIN herbicidal activity in percent (Matricaria inodora; 80 g/ha)	MATIN herbicidal activity in percent (Matricaria inodora; 320 g/ha)	ORYSA herbicidal activity in percent (Oryza sativa; 80 g/ha)	ORYSA herbicidal activity in percent (Oryza sativa; 320 g/ha)	ZEAMX herbicidal activity in percent (Zea mays; 80 g/ha)	ZEAMX herbicidal activity in percent (Zea mays; 320 g/ha)	TRZAS herbicidal activity in percent ([2]; 80 g/ha)	TRZAS herbicidal activity in percent ([2]; 320 g/ha)	logp (HCOOH) [1]	also measured
CC(=O)c1cnc(N[C@H]2c3cc(C)ccc3C[C@@H]2C)nc1 [1.10]																chromatographic logP ([1]; HCOOH): 2.99
CC1CCc2ccccc2C1Nc1ncc2c(n1)CC(C)(C)CC2=O (racemic) [2.95]	100%	100%	100%	100%	100%	100%	90%	90%	0%	0%	0%	0%	0%	0%	oily; logp (HCOOH): 4.02; 1H-NMR (CDCl3, 400 MHZ, δ in ppm): 1.10 (s + d, 9H,	STEME herbicidal activity in percent (Stellaria media; 80 g/ha): 100%; ECHCG herbicidal activity in percent (Echinochloa crus-galli; 320 g/ha): 80%
CC(=O)c1cnc(NC2CCOc3c(C)cc(F)cc32)nc1C (racemic) [1.87]	100%	100%	80%	100%		100%	90%	100%	0%		0%	10%	0%	0%		VIOTR herbicidal activity in percent (Viola tricolor; 80 g/ha): 100%; SETVI herbicidal activity in percent (Setaria viridis; 320 g/ha): 100%; ECHCG herbicidal activity in percent (Echinochloa crus-galli; 320 g/ha): 100%
O=C1CCCc2nc(NC3CCOc4c(Cl)cccc43)ncc21 (racemic) [2.84]															oily; logp (HCOOH): 2.75; 1H-NMR (CDCl3, 400 MHZ, δ in ppm): 2.15 (m, 3H, 2H	
CC(=O)c1cnc(N[C@@H]2CCCc3ccccc32)nc1C [1.82, 1-{4-methyl-2-[(1R)-1,2,3,4-tetrahydronaphthalen-1-ylamino]pyrimidin-5-yl}ethanone]	100%	100%	90%	90%	100%	100%	90%	90%	0%	3%	0%		0%	0%		POLCO herbicidal activity in percent (Polygonum convolvulus; 320 g/ha): 80%; VIOTR herbicidal activity in percent (Viola tricolor; 80 g/ha): 100%; post-emergence efficacy TRZAS [3]: 0%; chromatographic logP ([1]; HCOOH (formic acid)): 3.03
Cc1ccc2c(c1)[C@H](Nc1ncc3c(n1)CC(c1ccccc1F)CC3=O)[C@@H](C)C2 (some centres unmarked) [2.50]	100%	90%				100%						0%			oily; logp (HCOOH): 4.86; 1H-NMR (CDCl3, 400 MHZ, δ in ppm): 1.25 (t, 3H, CH3);	STEME herbicidal activity in percent (Stellaria media; 1280 g/ha): 100%; VIOTR herbicidal activity in percent (Viola tricolor; 1280 g/ha): 90%; SETVI herbicidal activity in percent (Setaria viridis; 1280 g/ha): 80%; AMARE herbicidal activity in percent (Amaranthus retroflexus; 1280 g/ha): 100%; VERPE herbicidal activity in percent (Veronica persica; 1280 g/ha): 100%; ZEAMX herbicidal activity in percent (Zea mays; 1280 g/ha): 0%
CC(=O)c1cnc(N[C@@H]2CCc3ccccc32)nc1C [1.89]	80%	100%		100%	80%	100%	100%	100%		0%	0%	0%	0%	0%	solid; logp (HCOOH): 2.80; 1H-NMR (CDCl3, 400 MHZ, δ in ppm: 1.90 (m, 1H, 1H	STEME herbicidal activity in percent (Stellaria media; 80 g/ha): 80%; VIOTR herbicidal activity in percent (Viola tricolor; 80 g/ha): 90%
CC(=O)c1cnc(N[C@@H]2CCCc3ccccc32)nc1 [1.3, 1-{2-[(1R)-1,2,3,4-tetrahydronaphthalen-1-ylamino]pyrimidin-5-yl}ethanone]	90%		100%	100%	100%	100%	90%	100%	20%		20%		20%	20%		POLCO herbicidal activity in percent (Polygonum convolvulus; 80 g/ha): 80%; POLCO herbicidal activity in percent (Polygonum convolvulus; 320 g/ha): 100%; SETVI herbicidal activity in percent (Setaria viridis; 320 g/ha): 80%; ECHCG herbicidal activity in percent (Echinochloa crus-galli; 80 g/ha): 80%; ECHCG herbicidal activity in percent (Echinochloa crus-galli; 320 g/ha): 100%; chromatographic logP ([1]; HCOOH (formic acid)): 2.51
COc1ccc2c(c1)CCC2Nc1ncc(C(C)=O)c(C)n1 (racemic) [1.92]		100%	100%	100%	100%	100%		100%		0%	20%	20%	0%	0%		
CC(=O)c1cnc(N[C@@H]2CCc3c(C)cc(C)cc32)nc1 [1.95]															solid; m.p.: 153.0° C.; logp (HCOOH): 3.45; 1H-NMR (CDCl3, 400 MHZ, δ in ppm):	
CC1Cc2cc(Cl)ccc2C1Nc1ncc2c(n1)CCCC2=O (racemic) [2.108]															oily; logp (HCOOH): 3.58; 1H-NMR (CDCl3, 400 MHZ, δ in ppm): 1.25 (d, 3H, CH3);	
